pIC50: −log10 of the molar value.
Legend:
[1] = target: T1, Serine/threonine-protein kinase Chk1 (Homo sapiens, UniProt O14757)
T1 sequence (O14757 whole entry): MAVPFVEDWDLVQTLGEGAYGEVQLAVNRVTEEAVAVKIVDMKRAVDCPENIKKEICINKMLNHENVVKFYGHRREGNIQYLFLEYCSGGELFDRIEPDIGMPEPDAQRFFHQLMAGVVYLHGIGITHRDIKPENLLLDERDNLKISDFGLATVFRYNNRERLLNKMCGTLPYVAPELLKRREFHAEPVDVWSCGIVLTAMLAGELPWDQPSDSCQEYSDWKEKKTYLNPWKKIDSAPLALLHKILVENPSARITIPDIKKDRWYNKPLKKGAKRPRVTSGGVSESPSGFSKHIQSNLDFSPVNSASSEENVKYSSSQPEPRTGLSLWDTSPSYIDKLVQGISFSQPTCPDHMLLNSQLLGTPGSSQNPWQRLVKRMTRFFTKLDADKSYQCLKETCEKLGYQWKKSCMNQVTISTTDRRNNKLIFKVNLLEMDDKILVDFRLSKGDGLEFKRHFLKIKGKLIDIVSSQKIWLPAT

[2] = target: Voltage-gated inwardly rectifying potassium channel KCNH2 (Homo sapiens, UniProt Q12809)
hERG (KCNH2) [3] = target: T2, hERG (KCNH2) (Homo sapiens, UniProt Q12809); experiment: Inhibition of human ERG overexpressed in HEK cells at 11 uM; format: cell-based, HEK293; settings: HEK cells overexpressing human ERG
hERG (KCNH2) [4] = target: T2, hERG (KCNH2); experiment: Inhibition of human ERG overexpressed in HEK cells at 10 uM; format: cell-based, HEK293; settings: HEK cells overexpressing human ERG
HT-29 = experiment: Antitumor activity against human HT-29 cells xenografted in athymic mouse assessed as tumor growth delay at 12.5 mg/kg, ip tid for 7 days (reference value: 6.9 1.5); format: functional; settings: route intraperitoneal
Mus musculus = experiment: Toxicity in athymic mouse xenografted with human HT-29 cells assessed as body weight loss at 12.5 mg/kg, ip tid for 7 days; format: organism-based; set-up: dose 12.5 mg/kg, route intraperitoneal; settings: in vivo, 168 h
in vitro = settings: mouse, liver microsomes
[5] = Plasma concentration in BALB/c mouse at 10 mg/kg, iv at 1 hr administered as bolus dose; format: ADME, organism-based; set-up: dose 10 mg/kg, route intravenous
[6] = Plasma concentration in BALB/c mouse at 10 mg/kg, iv at 6 hrs administered as bolus dose; format: ADME, organism-based; set-up: dose 10 mg/kg, route intravenous
[7] = Plasma concentration in BALB/c mouse at 10 mg/kg, po at 6 hrs; format: ADME, organism-based; set-up: dose 10 mg/kg, route oral
[8] = Plasma concentration in BALB/c mouse at 10 mg/kg, po at 1 hr; format: ADME, organism-based; set-up: dose 10 mg/kg, route oral

T2 sequence (Q12809 whole entry): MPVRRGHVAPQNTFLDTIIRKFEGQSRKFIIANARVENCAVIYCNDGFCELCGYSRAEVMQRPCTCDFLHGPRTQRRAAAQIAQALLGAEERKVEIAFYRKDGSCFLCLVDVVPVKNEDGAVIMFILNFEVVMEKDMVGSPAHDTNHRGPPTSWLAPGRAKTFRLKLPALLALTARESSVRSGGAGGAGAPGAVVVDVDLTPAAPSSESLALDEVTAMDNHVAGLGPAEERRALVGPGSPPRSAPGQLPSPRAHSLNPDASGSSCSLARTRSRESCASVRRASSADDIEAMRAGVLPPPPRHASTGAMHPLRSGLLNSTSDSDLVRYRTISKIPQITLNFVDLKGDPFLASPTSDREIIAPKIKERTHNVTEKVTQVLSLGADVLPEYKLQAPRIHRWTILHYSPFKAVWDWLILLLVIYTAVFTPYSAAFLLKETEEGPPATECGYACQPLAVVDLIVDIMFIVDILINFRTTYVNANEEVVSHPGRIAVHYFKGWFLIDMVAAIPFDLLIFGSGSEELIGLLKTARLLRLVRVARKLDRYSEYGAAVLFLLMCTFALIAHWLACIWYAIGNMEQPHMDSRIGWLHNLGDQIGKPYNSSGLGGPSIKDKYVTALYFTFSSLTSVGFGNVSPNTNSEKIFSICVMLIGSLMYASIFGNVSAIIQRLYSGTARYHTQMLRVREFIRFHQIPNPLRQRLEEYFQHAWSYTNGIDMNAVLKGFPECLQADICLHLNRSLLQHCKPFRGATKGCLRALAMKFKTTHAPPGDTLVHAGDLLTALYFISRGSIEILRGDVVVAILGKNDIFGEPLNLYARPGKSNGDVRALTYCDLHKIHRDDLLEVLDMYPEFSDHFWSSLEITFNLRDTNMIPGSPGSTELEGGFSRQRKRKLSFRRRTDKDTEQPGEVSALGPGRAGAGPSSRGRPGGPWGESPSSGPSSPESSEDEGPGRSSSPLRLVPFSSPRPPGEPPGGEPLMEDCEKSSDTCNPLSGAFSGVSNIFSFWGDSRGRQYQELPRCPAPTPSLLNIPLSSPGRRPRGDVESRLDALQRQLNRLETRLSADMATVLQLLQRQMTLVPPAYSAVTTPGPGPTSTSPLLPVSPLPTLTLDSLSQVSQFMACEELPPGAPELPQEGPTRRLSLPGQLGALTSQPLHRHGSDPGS
Voltage-gated inwardly rectifying potassium channel KCNH2, sequence (Q12809 whole entry): as above

CNc1cc(Nc2cnc(C#N)c(O[C@H](C)CN(C)C)n2)ncc1Cl
pIC50 [1]: 7.70 | pIC50 [2]: 6.00

CNc1cc(Nc2cnc(C#N)c(O[C@H](C)CN(C)C)n2)ncc1-c1cccc(F)c1
inhibition at 11 µM (hERG (KCNH2) [3]): 103% | pIC50 [1]: 7.44

CNc1cc(Nc2cnc(C#N)c(O[C@H](C)CN(C)C)n2)ncc1C#CC(C)(C)O
pIC50 [1]: 8.54 | inhibition at 10 µM (hERG (KCNH2) [4]): 59%

CCc1c2c(nc3ccc(OC(=O)N4CCC(N5CCCCC5)CC4)cc13)-c1cc3c(c(=O)n1C2)COC(=O)[C@]3(O)CC [IRINOTECAN]
Time (HT-29): 6.4 days | Activity (Mus musculus): Non-toxic

CSc1cc(Nc2cnc(C#N)c(O[C@H](C)CN(C)C)n2)ncc1-c1cnn(C)c1
pIC50 [1]: 7.57 | pIC50 [2]: 5.10

COc1cc(Nc2cnc(C#N)c(O[C@@H]3CCN(C)C3)n2)ncc1-c1cnn(C)c1
metabolised at 0.5 h (in vitro): 18% | concentration at 1 h [5]: 1180 nM | pIC50 [1]: 8.20 | concentration at 6 h [6]: 7 nM | pIC50 [2]: 4.80 | concentration at 6 h [7]: 6 nM | concentration at 1 h [8]: 264 nM

CNc1cc(Nc2cnc(C#N)c(O[C@H]3CCNC3)n2)ncc1-c1cnn(C)c1
metabolised at 0.5 h (in vitro): 12% | concentration at 1 h [5]: 254 nM | concentration at 6 h [6]: 53 nM | concentration at 6 h [7]: 2 nM | inhibition at 10 µM (hERG (KCNH2) [4]): 37% | concentration at 1 h [8]: 3 nM

COC(=O)c1cnc(Nc2cnc(C#N)c(O[C@@H]3CCNC3)n2)cc1OC
inhibition at 11 µM (hERG (KCNH2) [3]): 44% | pIC50 [1]: 7.33

CNc1cc(Nc2cnc(C#N)c(O[C@H]3CCN(C)C3)n2)ncc1-c1cnn(C)c1
metabolised at 0.5 h (in vitro): 19% | concentration at 1 h [5]: 147 nM | pIC50 [1]: 8.47 | concentration at 6 h [6]: 8 nM | concentration at 6 h [7]: 4 nM | concentration at 1 h [8]: 18 nM

CNc1cc(Nc2cnc(C#N)c(O[C@H](C)CN(C)C)n2)ncc1C(=O)OC
metabolised at 0.5 h (in vitro): 49% | pIC50 [1]: 8.15 | pIC50 [2]: 5.30

C#Cc1cnc(Nc2cnc(C#N)c(O[C@H](C)CN(C)C)n2)cc1NC
metabolised at 0.5 h (in vitro): 40% | concentration at 1 h [5]: 833 nM | pIC50 [1]: 7.96 | concentration at 6 h [6]: 7 nM | concentration at 6 h [7]: 6 nM | concentration at 1 h [8]: 439 nM
